Patent US20240166630A1, “INDOLE DERIVATIVES AS SEROTONERGIC AGENTS USEFUL FOR THE TREATMENT OF DISORDERS RELATED THERETO” (Mindset Pharma Inc., priority 2021, published 2024)
“And” between values parts separate entries of the source, which are not always exact repeats. Equal values may be shown once. Read-outs that look alike come from different tables or passages of the source.

Assay: In vivo pharmacokinetics in male C57BL/6 mice
Parameters: species or system mouse
Experimental: Animals: Male C57BL/6 mice (25-30 g) from Charles River Labs were acclimatized for a minimum of 5 days prior to dosing. Body weights were recorded on the day of dosing.
Food restriction: Animals dosed p.o. were deprived of food overnight and fed ˜2 h following dosing.
Dosing: Formulations were administered intravenously (i.v.) via the tail vein or orally (p.o.) by gavage with disposable feeding needles.
Sample collection: Serial blood samples was collected via tail snip. Terminal blood samples was collected under isoflurane anesthesia by cardiac puncture.
Sample processing/storage: All blood samples were transferred into K2EDTA tubes on wet ice and centrifuged within 5 min (3200× g for 5 min at 4° C.) to obtain plasma. Plasma was stored at −80° C. until analysis.
Instrumentation: AB Sciex QTRAP 4000 or 6500 MS/MS system equipped with an LC system with a binary pump, a solvent degasser, a thermostatted column compartment and a multiplate autosampler.
5. PK Analysis • i. Analysis software: Phoenix® WinNonlin® 8.2 (Pharsight, Certara, Mountainview, CA) • ii. Analysis methods: non-compartmental analysis, linear up/log down trapezoidal rule • iii. PK parameters: C0, t1/2, AUC0-tlast. AUC0-∞, CL, Vss, MRT, tmax(po), Cmax(po), F, as appropriate

[1] = 9.92 mg/kg s.c., individual animals M16-M18

## [2H]C([2H])(c1c[nH]c2ccccc12)[C@H]1CCCN1C([2H])([2H])[2H] [I-B-1, (R)-3-((1-(methyl-d3)pyrrolidin-2-yl)methyl-d2)-1H-indole]
[1]
  F: 72.2% and 70.9% and 60.8%
  MRT0-inf: 2.58 h
  tmax: 0.500 h
male, C57BL/6, mouse, plasma, iv, 9.92 mg/kg, 9.92 mg/kg i.v., Mean ± SD
  clearance: 41.7 mL/min/kg
male, C57BL/6, mouse, plasma, iv, 9.92 mg/kg, 9.92 mg/kg i.v., Mean ± SD, read-out: AUC0-inf
  AUC(0-inf): 4000 ± 389 ng·h/mL
male, C57BL/6, mouse, plasma, iv, 9.92 mg/kg, 9.92 mg/kg i.v., Mean ± SD, read-out: AUC0-tlast
  AUC(0-t): 4000 ± 389 ng·h/mL
male, C57BL/6, mouse, plasma, iv, 9.92 mg/kg, 9.92 mg/kg i.v., Mean ± SD, read-out: Apparent t1/2 (converted)
  half-life: 2.17 ± 0.127 h
male, C57BL/6, mouse, plasma, iv, 9.92 mg/kg, 9.92 mg/kg i.v., Mean ± SD, read-out: C0
  C0: 3910 ± 868 ng/mL
male, C57BL/6, mouse, plasma, iv, 9.92 mg/kg, 9.92 mg/kg i.v., Mean ± SD, read-out: MRT0-inf
  MRT inf: 2.43 ± 0.16 h
male, C57BL/6, mouse, plasma, iv, 9.92 mg/kg, 9.92 mg/kg i.v., Mean ± SD, read-out: Vss
  Vd: 6.06 ± 0.464 L/kg
male, C57BL/6, mouse, plasma, iv, 9.92 mg/kg, 9.92 mg/kg i.v., individual animals M10-M12
  clearance: 43 mL/min/kg
male, C57BL/6, mouse, plasma, iv, 9.92 mg/kg, 9.92 mg/kg i.v., individual animals M10-M12, read-out: AUC0-inf
  AUC(0-inf): 3850 ng·h/mL
male, C57BL/6, mouse, plasma, iv, 9.92 mg/kg, 9.92 mg/kg i.v., individual animals M10-M12, read-out: AUC0-tlast
  AUC(0-t): 3850 ng·h/mL
male, C57BL/6, mouse, plasma, iv, 9.92 mg/kg, 9.92 mg/kg i.v., individual animals M10-M12, read-out: Apparent t1/2 (converted)
  half-life: 2.3 h
male, C57BL/6, mouse, plasma, iv, 9.92 mg/kg, 9.92 mg/kg i.v., individual animals M10-M12, read-out: C0
  C0: 4910 ng/mL
male, C57BL/6, mouse, plasma, iv, 9.92 mg/kg, 9.92 mg/kg i.v., individual animals M10-M12, read-out: MRT0-inf
  MRT inf: 2.26 h
male, C57BL/6, mouse, plasma, iv, 9.92 mg/kg, 9.92 mg/kg i.v., individual animals M10-M12, read-out: Vss
  Vd: 5.83 L/kg
male, C57BL/6, mouse, plasma, po, 9.92 mg/kg, 9.92 mg/kg p.o., Mean ± SD, read-out: AUC0-tlast
  AUC(0-t): 2170 ± 665 ng·h/mL
male, C57BL/6, mouse, plasma, po, 9.92 mg/kg, 9.92 mg/kg p.o., Mean ± SD, read-out: Cmax
  Cmax: 389 ± 112 ng/mL
male, C57BL/6, mouse, plasma, po, 9.92 mg/kg, 9.92 mg/kg p.o., Mean ± SD, read-out: tmax
  tmax: 0.25 h
male, C57BL/6, mouse, plasma, po, 9.92 mg/kg, 9.92 mg/kg p.o., individual animals M13-M15, read-out: AUC0-inf
  AUC(0-inf): 1630 ng·h/mL
male, C57BL/6, mouse, plasma, po, 9.92 mg/kg, 9.92 mg/kg p.o., individual animals M13-M15, read-out: AUC0-tlast
  AUC(0-t): 1460 ng·h/mL
male, C57BL/6, mouse, plasma, po, 9.92 mg/kg, 9.92 mg/kg p.o., individual animals M13-M15, read-out: Cmax
  Cmax: 308 ng/mL
male, C57BL/6, mouse, plasma, po, 9.92 mg/kg, 9.92 mg/kg p.o., individual animals M13-M15, read-out: MRT0-inf
  MRT inf: 8.91 h
male, C57BL/6, mouse, plasma, po, 9.92 mg/kg, 9.92 mg/kg p.o., individual animals, estimate may not be accurate, read-out: Apparent t1/2 (converted)
  half-life: 9.66 h
male, C57BL/6, mouse, plasma, po, 9.92 mg/kg, 9.92 mg/kg p.o., mean (n = 2), read-out: AUC0-inf
  AUC(0-inf): 2360 ng·h/mL
male, C57BL/6, mouse, plasma, po, 9.92 mg/kg, 9.92 mg/kg p.o., mean (n = 2), read-out: Apparent t1/2 (converted)
  half-life: 9.56 h
male, C57BL/6, mouse, plasma, po, 9.92 mg/kg, 9.92 mg/kg p.o., mean (n = 2), read-out: MRT0-inf
  MRT inf: 8.72 h
male, C57BL/6, mouse, plasma, sc, 9.92 mg/kg, 9.92 mg/kg s.c., Mean ± SD, read-out: AUC0-inf
  AUC(0-inf): 2720 ± 249 ng·h/mL
male, C57BL/6, mouse, plasma, sc, 9.92 mg/kg, 9.92 mg/kg s.c., Mean ± SD, read-out: AUC0-tlast
  AUC(0-t): 2720 ± 250 ng·h/mL
male, C57BL/6, mouse, plasma, sc, 9.92 mg/kg, 9.92 mg/kg s.c., Mean ± SD, read-out: Apparent t1/2 (converted)
  half-life: 2.3 ± 0.232 h
male, C57BL/6, mouse, plasma, sc, 9.92 mg/kg, 9.92 mg/kg s.c., Mean ± SD, read-out: Cmax
  Cmax: 1240 ± 387 ng/mL
male, C57BL/6, mouse, plasma, sc, 9.92 mg/kg, 9.92 mg/kg s.c., Mean ± SD, read-out: MRT0-inf
  MRT inf: 2.6 ± 0.186 h
male, C57BL/6, mouse, plasma, sc, 9.92 mg/kg, 9.92 mg/kg s.c., Mean ± SD, read-out: tmax
  tmax: 0.25 h
male, C57BL/6, mouse, plasma, sc, 9.92 mg/kg, 9.92 mg/kg s.c., individual animals M16-M18, read-out: AUC0-inf
  AUC(0-inf): 2890 ng·h/mL
male, C57BL/6, mouse, plasma, sc, 9.92 mg/kg, 9.92 mg/kg s.c., individual animals M16-M18, read-out: AUC0-tlast
  AUC(0-t): 2880 ng·h/mL
male, C57BL/6, mouse, plasma, sc, 9.92 mg/kg, 9.92 mg/kg s.c., individual animals M16-M18, read-out: Apparent t1/2 (converted)
  half-life: 2.1 h
male, C57BL/6, mouse, plasma, sc, 9.92 mg/kg, 9.92 mg/kg s.c., individual animals M16-M18, read-out: Cmax
  Cmax: 1680 ng/mL
male, C57BL/6, mouse, plasma, sc, 9.92 mg/kg, 9.92 mg/kg s.c., individual animals M16-M18, read-out: MRT0-inf
  MRT inf: 2.8 h
male, C57BL/6, mouse, plasma, sc, 9.92 mg/kg, 9.92 mg/kg s.c., individual animals M16-M18, read-out: tmax
  tmax: 0.25 h
